Where only a bound is given, the exact number is not on record here.

For one assay, the system named is Notch. Briefly: Release and translocation of Notch intracellular domain into the nucleus, HEK/AENotch cells (NICD immunostaining, ImageXpress). Particulars: 3 μM Lactacystin, 4-6 h incubation, nucleus/cytosol NICD fluorescence ratio. In kind it is cell-based, Human. The procedure:
The level of activity of the compounds on release and translocation of Notch intracellular domain into the cell nucleus was tested using the following method:
Compounds were diluted in 100% DMSO and stored at […] prior to use. Human Embryonic Kidney cell line overexpressing Notchl-E-human-myc construct (referred to as HEK/AENotch) were cultured in T75 cm^2 or T225 cm^2 cell culture flasks using Dulbecco's Modified Eagles medium (DMEM) supplemented with […] glucose, Na-pyruvate and GlutaMAX with 10% FBS, 100 U/ml penicillin-streptomycin (PEST) respectively, 1× non-essential amino acids (NEAA), […] Hepes and 100 μg/ml Hygromycin. Cells at about 80% confluence were washed with PBS, detached from the flask bottom using 1× Trypsin/EDTA diluted in PBS, re-suspended in cell media and plated in 384-well plates at about 10000 cells/well, in 25 μL cell media. Optionally, cryo-preserved cells (frozen and stored at −140° C. in 90% cell media and 10% DMSO) were thawed, washed and plated as above. Next the cells were incubated for 15-24 h at 37° C. and 5% CO2, after which cell medium was replaced with fresh medium containing 3 μM Lactacystin and test compound diluted ×200 from prepared compound plate giving 0.5% final DMSO concentration, and the highest compound concentration typically 25 μM. Cells were then incubated 4-6 h with test compound before being fixed, washed and immunostained with NICD antibody (rabbit Notch 1 (C-20)). Image acquisition of cytosolic/membrane and nuclear fluorescence as well as subsequent analysis of the nucleus and cytosolic fluorescence ratio was carried out using ImageXpress. Potential cytotoxic effects of the compounds were usually assayed by analysis of nucleus area or cell number.

The next assay concerns Aβ42. Briefly: Aβ42 release from HEK cells stably expressing APPswe (MSD electrochemiluminescence). It is filed as cell-based, Human. Conditions: 4-6 h incubation with test compound, Aβ42 secreted to cell medium. The procedure: The level of activity of the compounds on Aβ formation was tested using the following method:
Compounds were diluted in 100% DMSO and stored at […] prior to use. Human Embryonic Kidney (HEK) cell line stably expressing APP with the Swedish mutation (APPswe) were cultured using Dulbecco's Modified Eagles medium (DMEM) supplied with […] glucose, Na-pyruvate and GlutaMAX with 10% FBS, 100 U/ml penicillin-streptomycin (PEST) respectively, 1× non-essential amino acids (NEAA), […] Hepes, 100 μg/ml Zeocine. Cells at about 80% confluence were washed with PBS, detached from culture flasks using 1× Trypsin/EDTA diluted in PBS, re-suspended in cell media and plated in 384-well poly-d-lysine coated cell culture plates at about 10000-15000 cells/well, in 25 μL cell media. Optionally, cryo-preserved cells (frozen and stored at −140° C. in 90% cell media and 10% DMSO) were thawed, washed and plated as above. Next the cells were incubated for 15-24 h at 37° C. and 5% CO2, after which cell medium was changed. Fresh medium containing test compound diluted ×200 from prepared compound plate was added to the cells before further incubation for 4-6 hours at 37° C. and 5% CO2. After incubation with test compound the amount of Aβ peptides, including Aβ42, Aβ40, Aβ39, Aβ38 and Aβ37, as well as total Aβ levels, secreted to cell medium was analyzed using the electrochemiluminescence assay technology from Meso Scale Discovery (MSD), in combination with specific antibodies raised against the different Aβ peptides. Aβ42, Aβ40 and Aβ38 antibodies were purchased from MSD and Aβ37 and Aβ39 were made in house. Total Aβ was measured using a combination of 6E10 and 4G8 anti Aβ antibodies from MSD. Potential cytotoxic effects of the compounds were usually assayed by measuring the ATP content (ViaLight) from cell lysate.

The mark [1] stands for this setting: Homo sapiens, HEK293, HEK cells expressing APPswe.

For `COc1nc(Nc2ccc3c(n2)OC(CC(F)(F)F)CN(C)C3C)ccc1-c1cnn(C)c1` (single isomer, unassigned) [Example 34, N-(6-Methoxy-5-(1-methyl-1H-pyrazol-4-yl)pyridin-2-yl)-4,5-dimethyl-2-(2,2,2-trifluoroethyl)-2,3,4,5-tetrahydropyrido[3,2-f][1,4]oxazepin-8-amine], the IC50 was > 25000 nM in the assay on Notch and 16 nM in the assay with Aβ42 (HEK cells expressing APPswe).

Regarding `COc1nc(Nc2ccc3c(n2)OC(CC(F)(F)F)CN(C)C3C)ccc1-c1cnn(C)c1` (single isomer, unassigned) [Example 35, N-(6-Methoxy-5-(1-methyl-1H-pyrazol-4-yl)pyridin-2-yl)-4,5-dimethyl-2-(2,2,2-trifluoroethyl)-2,3,4,5-tetrahydropyrido[3,2-f][1,4]oxazepin-8-amine], the IC50 in the assay on Notch was > 25000 nM; in the assay with Aβ42 (HEK cells expressing APPswe), 12 nM.

Take `COc1nc(Nc2ccc3c(n2)OC(CC(F)(F)F)CN(C)C3C)ccc1-c1cnn(C)c1` (single isomer, unassigned) [Example 36, N-(6-Methoxy-5-(1-methyl-1H-pyrazol-4-yl)pyridin-2-yl)-4,5-dimethyl-2-(2,2,2-trifluoroethyl)-2,3,4,5-tetrahydropyrido[3,2-f][1,4]oxazepin-8-amine]: the IC50 in the assay with Notch is > 25000 nM; with Aβ42 (HEK cells expressing APPswe), 12 nM.

Turning to `COc1nc(Nc2ccc3c(n2)OC(C2CC(F)(F)C2)CN(C)C3)ccc1-c1cnn(C)c1` (single isomer, unassigned) [Example 38, 2-(3,3-Difluorocyclobutyl)-N-(6-methoxy-5-(1-methyl-1H-pyrazol-4-yl)pyridin-2-yl)-4-methyl-2,3,4,5-tetrahydropyrido[3,2-f][1,4]oxazepin-8-amine], the half-maximal inhibitory concentration (IC50) with Notch is > 25000 nM; in the assay with Aβ42 (HEK cells expressing APPswe) it was 15 nM.

As for `COc1nc(Nc2ccc3c(n2)O[C@H](c2ccc(F)cn2)CN(C)C3C)ccc1-c1cnn(C)c1` (single isomer, unassigned) [Example 50], the values for the IC50 with Notch and with Aβ42 (HEK cells expressing APPswe) were 2310 nM and 60 nM, respectively.

As to `COc1nc(Nc2ccc3c(n2)O[C@H](c2ccc(F)cn2)CN(C)C3C)ccc1-c1cnn(C)c1` (single isomer, unassigned) [Example 51], the values for the IC50 in the assay with Notch and with Aβ42 (HEK cells expressing APPswe) were > 25000 nM and 19 nM, respectively.

With `COc1nc(Nc2ccc3c(n2)OC(CCC(F)(F)F)CN(C)C3)ccc1-c1cnn(C)c1` (single isomer, unassigned; (+)) [Example 57, (+)-N-[6-Methoxy-5-(1-methylpyrazol-4-yl)-2-pyridyl]-4-methyl-2-(3,3,3-trifluoropropyl)-3,5-dihydro-2H-pyrido[3,2-f][1,4]oxazepin-8-amine], the concentration for half-maximal inhibition (IC50) in the assay on Notch was > 11500 nM; in the assay with Aβ42 (HEK cells expressing APPswe), 5 nM.

Consider `COc1nc(Nc2ccc3c(n2)OC(c2nc(C)cs2)C(C)N(C)C3)ccc1-n1cnc(C)c1` (single isomer, unassigned; (+)) [Example 60, (+)-N-(6-Methoxy-5-(4-methyl-1H-imidazol-1-yl)pyridin-2-yl)-3,4-dimethyl-2-(4-methylthiazol-2-yl)-2,3,4,5-tetrahydropyrido[3,2-f][1,4]oxazepin-8-amine], for which the values for the IC50 in the assay with Notch and in the assay on Aβ42 (HEK cells expressing APPswe) were > 25000 nM and 17 nM, respectively.

As for `COc1nc(Nc2ccc3c(n2)OC(c2ncc(C)s2)CN(C)C3)ccc1-n1cnc(C)c1` (single isomer, unassigned; (+)) [Example 66, (+)-N-(6-Methoxy-5-(4-methyl-1H-imidazol-1-yl)pyridin-2-yl)-4-methyl-2-(5-methylthiazol-2-yl)-2,3,4,5-tetrahydropyrido[3,2-f][1,4]oxazepin-8-amine], the IC50 is > 25000 nM in the assay with Notch and 38 nM with Aβ42 (HEK cells expressing APPswe).

Consider `COc1nc(Nc2ccc3c(n2)OC(CC(F)(F)F)CN(C)C3)ccc1-c1cnn(C)c1` (single isomer, unassigned; (-)) [Example 5, (−)-N-(6-Methoxy-5-(1-methyl-1H-pyrazol-4-yl)pyridin-2-yl)-4-methyl-2-(2,2,2-trifluoroethyl)-2,3,4,5-tetrahydropyrido[3,2-f][1,4]oxazepin-8-amine], for which the IC50 was > 25000 nM with Notch and 21 nM with Aβ42 (HEK cells expressing APPswe).

Take `COc1nc(Nc2ccc3c(n2)OC(c2nc(C)cs2)CN(C)C3)ccc1-c1cnn(C)c1` (single isomer, unassigned; (-)) [Example 11, (−)-N-(6-Methoxy-5-(1-methyl-1H-pyrazol-4-yl)pyridin-2-yl)-4-methyl-2-(4-methylthiazol-2-yl)-2,3,4,5-tetrahydropyrido[3,2-f][1,4]oxazepin-8-amine]: the results for the IC50 in the assay with Notch (Homo sapiens) and with Aβ42 (HEK cells expressing APPswe) were 1440 nM and 14 nM, respectively.

On to `COc1nc(Nc2ccc3c(n2)O[C@H](c2ccc(F)cn2)CN(C)C3C)ccc1-n1cnc(C)c1` (single isomer, unassigned; (-)) [Example 52], for which the IC50 was found to be 7200 nM in the assay on Notch (Homo sapiens) and 10 nM with Aβ42 (setting [1]).

Consider `COc1nc(Nc2ccc3c(n2)O[C@H](c2ccc(F)cn2)CN(C)C3C)ccc1-n1cnc(C)c1` (single isomer, unassigned; (-)) [Example 53], for which the results for the IC50 in the assay with Notch and in the assay with Aβ42 (HEK cells expressing APPswe) were > 7900 nM and 11 nM, respectively.

`COc1nc(Nc2ccc3c(n2)OC(CCC(F)(F)F)CN(C)C3)ccc1-c1cnn(C)c1` (single isomer, unassigned; (-)) [Example 58, (−)-N-[6-Methoxy-5-(1-methylpyrazol-4-yl)-2-pyridyl]-4-methyl-2-(3,3,3-trifluoropropyl)-3,5-dihydro-2H-pyrido[3,2-f][1,4]oxazepin-8-amine]: the IC50 in the assay with Notch was > 25000 nM; with Aβ42 (HEK cells expressing APPswe), 18 nM.

As to `COc1nc(Nc2ccc3c(n2)OC(c2nc(C)cs2)C(C)N(C)C3)ccc1-n1cnc(C)c1` (single isomer, unassigned; (-)) [Example 59, (−)-N-(6-Methoxy-5-(4-methyl-1H-imidazol-1-yl)pyridin-2-yl)-3,4-dimethyl-2-(4-methylthiazol-2-yl)-2,3,4,5-tetrahydropyrido[3,2-f][1,4]oxazepin-8-amine], the values for the IC50 in the assay on Notch (Homo sapiens) and in the assay with Aβ42 (HEK cells expressing APPswe) were > 25000 nM and 7 nM, respectively.

Take `COc1nc(Nc2ccc3c(n2)OC(CCC(F)(F)F)CN(C)C3)ccc1-n1cnc(C)c1` (single isomer, unassigned; (-)) [Example 62, (−)-[6-Methoxy-5-(4-methyl-imidazol-1-yl)-pyridin-2-yl]-[6-methyl-8-(3,3,3-trifluoro-propyl)-5,6,7,8-tetrahydro-9-oxa-1,6-diaza-benzocyclohepten-2-yl]-amine]: the values for the IC50 in the assay on Notch and in the assay on Aβ42 (HEK cells expressing APPswe) were > 25000 nM and 5 nM, respectively.

On to `COc1nc(Nc2ccc3c(n2)OC(c2ncc(C)s2)CN(C)C3)ccc1-n1cnc(C)c1` (single isomer, unassigned; (-)) [Example 65, (−)-N-(6-Methoxy-5-(4-methyl-1H-imidazol-1-yl)pyridin-2-yl)-4-methyl-2-(5-methylthiazol-2-yl)-2,3,4,5-tetrahydropyrido[3,2-f][1,4]oxazepin-8-amine], for which the results for the IC50 in the assay on Notch (Homo sapiens) and in the assay on Aβ42 (HEK cells expressing APPswe) were > 25000 nM and 9 nM, respectively.

Turning to `COc1nc(Nc2ccc3c(n2)OC(CC(CF)CF)CN(C)C3)ccc1-n1cnc(C)c1` (single isomer, unassigned; (-)) [Example 68, (−)-[8-(3-Fluoro-2-fluoromethyl-propyl)-6-methyl-5,6,7,8-tetrahydro-9-oxa-1,6-diaza-benzocyclohepten-2-yl]-[6-methoxy-5-(4-methyl-imidazol-1-yl)-pyridin-2-yl]-amine], the IC50 was > 25000 nM in the assay on Notch and 9 nM with Aβ42 (HEK cells expressing APPswe).

In the case of `Cc1cn(-c2ccc(Nc3cc(C)c4c(n3)OC(CC(F)(F)F)CN(C)C4)nc2)cn1` (centres unmarked) [Example 1, 4,6-Dimethyl-N-(5-(4-methyl-1H-imidazol-1-yl)pyridin-2-yl)-2-(2,2,2-trifluoroethyl)-2,3,4,5-tetrahydropyrido[3,2-f][1,4]oxazepin-8-amine], the values for the IC50 in the assay on Notch (Homo sapiens) and in the assay with Aβ42 (setting [1]) were > 50000 nM and 225 nM, respectively.

As a reminder, the IC50 is the point on the concentration scale where inhibition reaches its midpoint.
